Results on 5 molecules are retold here after US5856309A, “Amidinopyrroline derivatives, processes for their production and pharmaceutical agents containing these compounds” (Boehringer Mannheim GmbH, priority 1997, dated 1999).

Experiment [1] deals with isolated activated GpIIb/IIIa receptor (Homo sapiens, UniProt P05106+P08514). Kind of experiment: GpIIb/IIIa fibrinogen Elisa. To be noted: inhibition of fibrinogen binding to coated GpIIb/IIIa receptor, optical density at 405 nm. The procedure:
The GpIIb/IIIa fibrinogen Elisa is a modification of assays which are described in the following literature: Nachman, R. L. & Leung, L. L. K. (1982): J. Clin. Invest. 69: 263-269 and Wright, P. S. et al. (1993): Biochem. J. 293:263-267.
Microtiter plates were coated overnight with 2 μg/ml isolated activated GpIIb/IIIa receptor. After unbound receptor had been removed by washing several times the surface of the plates is blocked with 1% casein and it is washed again. The test substance is added at the required concentrations and the plates are incubated for 10 minutes while shaking. The natural ligand of the gpIIb/IIIa receptor, fibrinogen, is added. After incubating for 1 hour unbound fibrinogen is removed by washing several times and the bound fibrinogen is determined by means of a peroxidase-conjugated, anti-fibrinogen monoclonal antibody by measuring the optical density at 405 nm in an ELISA instrument. The inhibition of a fibrinogen-GpIIb/IIIa interaction results in a low optical density. The IC50 value was determined by a concentration/effect curve.

Experiment [2] deals with T1, bovine pancreatic trypsin (Bos taurus, UniProt P00760).
T1 construct: purchased Sigma
T1 sequence (P00760 24-246): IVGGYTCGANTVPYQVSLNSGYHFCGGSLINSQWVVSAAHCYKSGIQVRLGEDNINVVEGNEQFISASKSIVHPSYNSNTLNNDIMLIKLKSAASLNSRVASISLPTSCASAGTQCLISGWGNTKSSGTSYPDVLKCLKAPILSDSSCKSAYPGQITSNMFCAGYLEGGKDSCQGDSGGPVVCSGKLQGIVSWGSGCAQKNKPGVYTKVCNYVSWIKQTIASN
Kind of experiment: Inhibition of trypsin, kinetic measurement as described for thrombin. Conditions: measured as described for thrombin, read-out: inhibition constant Ki (trypsin). The format is biochemical.
Protocol: The kinetic measurements were carried out in 0.1M phosphate buffer which contained 0.2M sodium chloride and 0.5% polyethylene glycol 6000 at a pH=7.5 and 25° C. using the substrate H-(D)-Phe-Pro-Arg-pNA (S-2238 Kabi) and human thrombin (Sigma, specific activity=2150 NIH units/mg) in polystyrene semimicro-cuvettes in a total volume of 1 ml.
For this the reaction was started first by adding 0.03 NIH units thrombin to a 100 μM solution of the substrate and the active substance. In a second experiment substrate was added to a solution of thrombin and the active substance which had been incubated for 5 min. The increase of the concentration of p-nitro-anilide with time was monitored spectrophotometrically for 12 min at 405 nm (UV-VIS spectrophotometer Lambda-2 from the Perkin-Elmer Company). […] The inhibition constant Ki was determined as follows. […] The increase in absorbance at 405 nm caused by the formation of p-nitroanilide was monitored for a time period of 12 min. Measurement points (time versus absorbance) were transferred to a PC at intervals of 20 sec. The rates Vo (changes in absorbance per see; measurements without inhibitor) and Vi (measurements with inhibitor) were determined from the data by linear regression. […] From one measurement series (constant inhibitor concentration, variable substrate concentrations) Km' and Vmax were determined by a non-linear fit to the equation [formula] […]

The subject of another experiment is horse thrombin. Briefly: Thrombin time in citrate plasma (sphere coagulometer). The format is biochemical. Conditions: citrate plasma of healthy donors, 37° C., control ca. 24 seconds. The procedure:
A common test in clinical coagulation diagnostics is the thrombin time. This parameter detects the action of thrombin on fibrinogen and the formation of blood clots. Inhibitors of thrombin result in an increased thrombin time.
In order to obtain plasma 9 parts fresh blood from healthy donors are mixed with one part sodium citrate solution (0.11 mol/l) and centrifuged at ca. 3000 rpm for 10 min at room temperature. The plasma was removed by pipette and can be stored for ca. 8 h at room temperature.
200 ul citrate plasma was incubated for 2 min at 37° C. in a sphere coagulometer (KC10 from the Amelung Company). 10 ul dimethylsulfoxide (DMSO) or a solution of the active substance in DMSO was added to 190 ul preheated thrombin reagent (Boehringer Mannheim, GmbH; contains ca. 3 U/ml horse thrombin and 0.0125M Ca2+). A stopwatch was started when this 200 ul solution was added to the plasma and the time point at which coagulation starts was determined. […] [* the experiment was stopped after 5 minutes.]

isolated activated GpIIb/IIIa receptor, sequence (P08514 32-887 limits assumed): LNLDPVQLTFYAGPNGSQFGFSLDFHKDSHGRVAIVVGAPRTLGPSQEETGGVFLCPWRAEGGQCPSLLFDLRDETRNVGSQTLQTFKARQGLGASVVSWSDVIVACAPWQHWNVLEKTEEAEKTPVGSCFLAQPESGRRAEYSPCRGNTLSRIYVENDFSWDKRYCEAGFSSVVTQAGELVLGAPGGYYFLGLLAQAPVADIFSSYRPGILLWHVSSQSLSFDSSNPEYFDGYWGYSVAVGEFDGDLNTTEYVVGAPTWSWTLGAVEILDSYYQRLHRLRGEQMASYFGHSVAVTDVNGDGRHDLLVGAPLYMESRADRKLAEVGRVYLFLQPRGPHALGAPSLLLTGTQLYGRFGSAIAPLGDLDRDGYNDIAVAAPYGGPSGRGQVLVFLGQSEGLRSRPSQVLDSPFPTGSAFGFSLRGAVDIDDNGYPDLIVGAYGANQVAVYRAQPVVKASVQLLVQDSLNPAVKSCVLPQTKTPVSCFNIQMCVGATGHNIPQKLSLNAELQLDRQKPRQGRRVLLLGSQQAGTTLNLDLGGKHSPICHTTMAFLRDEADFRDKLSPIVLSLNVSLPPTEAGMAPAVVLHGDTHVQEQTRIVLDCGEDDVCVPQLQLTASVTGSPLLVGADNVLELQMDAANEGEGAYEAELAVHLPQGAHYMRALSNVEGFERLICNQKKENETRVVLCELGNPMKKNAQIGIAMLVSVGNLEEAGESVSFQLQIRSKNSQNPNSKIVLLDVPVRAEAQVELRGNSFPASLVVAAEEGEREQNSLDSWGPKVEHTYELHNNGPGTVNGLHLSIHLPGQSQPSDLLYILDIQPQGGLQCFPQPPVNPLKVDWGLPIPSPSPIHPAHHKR
isolated activated GpIIb/IIIa receptor, sequence (P08514 891-1039 partner limits assumed): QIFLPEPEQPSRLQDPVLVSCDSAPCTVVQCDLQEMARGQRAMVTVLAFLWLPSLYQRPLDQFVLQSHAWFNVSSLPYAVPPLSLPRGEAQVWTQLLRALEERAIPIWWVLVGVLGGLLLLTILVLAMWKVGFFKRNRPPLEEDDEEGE
isolated activated GpIIb/IIIa receptor, sequence (P05106 27-788): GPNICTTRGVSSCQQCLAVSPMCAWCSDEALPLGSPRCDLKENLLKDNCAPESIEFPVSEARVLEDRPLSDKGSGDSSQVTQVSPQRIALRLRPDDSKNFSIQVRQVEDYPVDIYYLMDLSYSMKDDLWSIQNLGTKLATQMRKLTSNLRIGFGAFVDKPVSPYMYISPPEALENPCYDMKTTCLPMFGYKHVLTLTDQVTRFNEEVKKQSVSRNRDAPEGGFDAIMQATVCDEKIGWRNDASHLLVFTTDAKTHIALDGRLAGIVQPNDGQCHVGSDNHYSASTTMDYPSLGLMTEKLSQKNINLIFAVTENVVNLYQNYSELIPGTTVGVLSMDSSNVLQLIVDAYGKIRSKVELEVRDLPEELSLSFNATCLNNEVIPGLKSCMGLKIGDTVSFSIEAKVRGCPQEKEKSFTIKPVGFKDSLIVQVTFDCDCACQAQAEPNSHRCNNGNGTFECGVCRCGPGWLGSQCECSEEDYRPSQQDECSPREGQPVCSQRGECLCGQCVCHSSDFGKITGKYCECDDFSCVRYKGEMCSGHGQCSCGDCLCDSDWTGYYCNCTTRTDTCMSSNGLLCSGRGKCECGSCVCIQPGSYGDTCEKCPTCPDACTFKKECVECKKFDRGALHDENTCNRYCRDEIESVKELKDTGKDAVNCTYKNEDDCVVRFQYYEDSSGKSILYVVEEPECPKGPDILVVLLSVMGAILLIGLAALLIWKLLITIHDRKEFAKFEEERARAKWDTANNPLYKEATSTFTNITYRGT

As for `N=C(N)N1CC=C(CC(NC(=O)OCC(Cl)(Cl)Cl)C(=O)NCC(=O)N[C@@H](CC(=O)O)C(=O)N[C@@H](CO)C(=O)O)C1` (stereo partly drawn) [Example 7, Troc-Ada-Gly-Asp-Ser], the IC50 in experiment [1] worked out at 14.4 µM. The same measure, in the same setting: the result for `N=C(N)N1CC=C(CC(NC(=O)OCC(Cl)(Cl)Cl)C(=O)NCC(=O)N[C@@H](CC(=O)O)C(=O)N[C@@H](Cc2c[nH]c3ccccc23)C(=O)O)C1` (stereo partly drawn) [Example 8, Troc-Ada-Gly-Asp-Trp] reads 0.4 µM; that for `N=C(N)N1CC=C(CC(NC(=O)OCC(Cl)(Cl)Cl)C(=O)NCC(=O)N[C@@H](CC(=O)O)C(=O)N[C@@H](Cc2ccccc2)C(=O)O)C1` (stereo partly drawn) [Example 9, Troc-Ada-Gly-Asp-Phe], 2.3 µM; that for `N=C(N)N1CC=C(CC(N)C(=O)NCC(=O)N[C@@H](CC(=O)O)C(=O)N[C@@H](Cc2ccc(O)cc2)C(=O)O)C1` (stereo partly drawn) [Example 10, Ada-Gly-Asp-Tyr], 2.4 µM. As to D-Pla-D-Phe-L-Choi-Adc [Example 1], the Ki in experiment [2] was 0.1 µM. Also, the “increase of thrombin time” value in the experiment on horse thrombin (test concentration 3.5 nM) is 5 s; in the experiment with horse thrombin (test concentration 34 nM), 65 s; in the experiment with horse thrombin (test concentration 340 nM, experiment stopped after 5 minutes), more than 300 s.
